The values that follow come from patent US12521425B2, “Method of liver cancer treatment with safranal-based formulations” (priority 2019, dated 2026).

Molecules are shown by their SMILES.

Assay [1] deals with HepG2 cells. Nature of the assay: Colony formation assay. The assay is classed as cell-based. The following applies: HepG2, 30-100 μM for 24 hours. The method, then:
Colony formation. HepG2 cell were seeded at a density of 1000 cells/6-well plate, and left to incubate for 24 hours to allow attachment before being treated with different concentrations of safranal (30, 50, 100 μM) for 24 hours. After which, culture media containing safranal was replaced by fresh growth media without safranal. Culture media was replenished every 3 days, until visible colonies were formed. Colonies were fixed with absolute methanol, then stained with 0.5% crystal violet. Colonies were then imaged and analyzed using ImageJ plugin ColonyArea. Results are represented as the percent of area occupied by colonies. To confirm, an absorption-based method was carried out to validate results obtained from ImageJ. Briefly, stained colonies were treated with 10% acetic acid solution to dissolve the crystal violet stain. After which, 100 μL of each triplicate sample was transferred to a 96-well plate (in triplicates), and absorbance was measured using an Epoch microplate spectrophotometer (BioTek). *p≤0.05, **p≤0.001, ***p≤0.0001

The subject of assay [2] is DEN-induced hepatic neoplasia. Put plainly: Western blotting of liver in DEN-induced HCC model. It counts as in vivo, male Wistar rats. The settings on record: liver of HCC rats. The method, then:
(§1) A modified version of the protocol described by DePeralta et al. (2016) and Schiffer et al. (2005) was used here to establish the hepatocarcinogenesis model.
(§2) On the first 15 weeks, the control PBS group was treated with 1×PBS, whereas the experimental groups were given an intraperitoneal injection (IP) of 50 mg/kg of diethylnitrosoamine (DEN, Sigma Aldrich), a widely used chemical for inducing cancer, once a week. DEN was diluted with 1×PBS. Following a one-week break (week 16), the next three weeks (weeks 17 to 19) of treatment commenced. All drugs were administrated by oral gavage. All doses were chosen according to literature (Alsaied et al., 2014; Karafakioglu et al., 2017). For the HCC+sorafenib group, the drug (Carbosynth Limited) was administered at a dose of 10 mg/kg, five days a week. For the HCC+safranal group, the drug (Sigma Aldrich) was administered at a dose of 200 mg/kg, five days a week. For the HCC+safranal+sorafenib group, the drugs were administered at a dose of 200 mg/kg safranal+10 mg/kg sorafenib, five days a week. Both safranal and sorafenib were diluted with 1×PBS and drops of Tween 80. […] After 24-hours from last treatment, the rats were euthanized by mild diethyl ether and dissected in equal conditions. Blood and whole liver were collected.
One hundredth gm (10 mg) liver was homogenized using 200 μl RIPA buffer (Sigma Aldrich) mixed with 2 μl protease inhibitor and 2 μl phosphatase inhibitor (Sigma Aldrich), and centrifuged at 4° C., 15,000 rpm for 15 minutes. Whole cell lysate was taken and stored at −80° C. Protein concentration was measured by Pierce BCA Protein Assay Kit with Promega GloMax Discover. A total of 35 μg of protein was loaded on a sodium dodecyl sulfate-polyacrylamide gel electrophoresis gel. The gel was then transferred to polyvinylidene difluoride membrane. The membrane was then blocked with 5% BSA in TBST for one hour at room temperature. Membranes were incubated with anti-Proliferating Cell Nuclear Antigen (PCNA), anti-PolyADP-ribose Polymerase (PARP), anti-caspase-3 (Cell Signaling Technology Inc.), anti-caspase-9 (Novus Biologicals), anti-Bax, anti-Bcl-2 (Santa Cruz), anti-Cdk1, anti-Cyclin B1, anti-Cdc25B (Cell Signaling Technology Inc.) over night at 4° C., then with HRP conjugated secondary, anti-mouse or anti-rabbit, antibody (Cell Signaling Technology Inc.) for one hour at room temperature. All primary and secondary antibodies were diluted in 5% BSA in TBST. Blots were incubated in WesternSure PREMIUM Chemiluminescent Substrate for antibodies' detection. Signal was visualized using Bio-Rad ChemiDoc XRS+System. Band density and quantification was done using ImageJ (Amin et al., 2011). Total protein was used as a loading control and stained using SYPRO Ruby protein gel stain according to the protocol provided (Thermo Fisher Scientific) (Aldridge et al., 2008; Hu et al., 2016).

For assay [3], the system named is HepG2 cells. Nature of the assay: Annexin V binding assay. The assay is classed as cell-based. The settings on record: HepG2, 500 μM, after 48 hours; increase from 8%.
Assay [4] relates to HepG2 cells. Put plainly: Cell morphology, crystal violet. It counts as cell-based. The settings on record: HepG2, increasing doses, 24 hours. Here is the method:
Cell morphology. HepG2 were seeded at a density of 0.25×10^6 cells/well in 6-well plate. After allowing the cell to attach, HepG2 cells were treated without or with different concentrations of safranal (30, 50, 100, 500, 700 μM) for 24 hrs. After which, cells were fixed and stained with crystal violet. The morphology of the cells was assessed after being fixed and stained with 0.5% crystal violet using IX53 microscope (Olympus).

The test system of assay [5] is DEN-induced hepatic neoplasia. Put plainly: Serum ALT and AST in DEN-induced HCC model. The assay is classed as in vivo, male Wistar rats. The following applies: HCC rats, oral gavage 5 days a week, weeks 17-19, safranal 200 mg/kg, sorafenib 10 mg/kg, mean±SEM, n=6. Here is the method:
as §1, §2
Rats were euthanized then blood was collected by decapitation and processed for later investigation. The blood was collected in collection tubes (BD Vacutainer) and serum was separated by centrifugation at 1200× g for 10 minutes. Serum was collected and flash frozen immediately then stored at −80° C. for further analysis.
Alanine Transaminase (ALT), and Aspartate Aminotransferase (AST) assays were performed using commercial kits (Abcam), according to the protocol provided. ALT and AST activities were measured spectrophotometrically using Epoch by BioTek.

The test system of assay [6] is HepG2 cells. Put plainly: MTT assay, cell viability. It counts as cell-based. The following applies: HepG2, 50-900 μM for 24, 48 and 72 hours; read-out: IC50, inhibition of cellular viability. Here is the method: MTT assay. HepG2 cells were seeded at a density of 5000 cells/well in 96-well plates in 100 μL of complete growth medium. Cells were allowed to attach before being treated with different concentrations of safranal (Sigma Aldrich) (50 μM, 100 μM, 500 μM, 700 μM and 900 μM) for 24, 48 and 72 hours. After which, the cells were treated with 3-[4,5-dimethylthiazol-2-yl]-2,5-diphenyltratrazolium bromide (MTT) (Sigma Aldrich) and incubated for 3 hours. The formed formazan crystals were dissolved using DMSO and the absorbance of the resulting product was measured at 570 nm using an Epoch microplate spectrophotometer (Bio-Tek). Cell viability is presented as percentile of the untreated control which was calculated accordingly: Percent of viable cells=(Abs. of treated cells/Abs. of control cells)×100. *p≤0.05, **p≤0.001, ***p≤0.0001.
In general terms: Tetrazolium assays rely on reduction of a dye to a coloured formazan, in cell work by metabolically active cells.

A word on the IC50: it is the point on the concentration scale where inhibition reaches its midpoint. On to `CC1=C(C=O)C(C)(C)CC=C1` [safranal], for which, in the assay with HepG2 cells [1], the colony formation result was “inhibited colony formation of HepG2 cells in a dose-dependent manner”. Besides, in assay [2], the Bax/Bcl-2 ratio result was “favored the apoptotic effect” and the TDP1 levels result was “lower levels of TDP1”. The “expression of pro-caspases-9 & 3 and whole PARP” value in assay [2] (compared to HCC group) is “significantly decreased”. In assay [2] (compared to HCC groups), the “expression of anti-apoptotic protein Bcl-2” value was “decreased” and the “expression of pro-apoptotic protein Bax” value is on record as “increased”. For the same compound, the “Cdk1, cyclin B1, Cdc25B levels” value in assay [2] (comparing to HCC animals) is “significantly decreased their levels”. Also, the “PCNA (proliferation-related protein)” value in assay [2] (n=4) is given as “significantly downregulated PCNA”. In the assay with HepG2 cells [3], the “number of dead cells (annexin V)” value came to 31%. Moreover, the morphological changes entry in the assay with HepG2 cells [4] was “morphological alterations including more rounded cell shapes, cell shrinkage, and increased detachment”. In assay [5], the ALT is given as 10.93 ± 0.29^b**^,c* mU/ml and the AST was 7.80 ± 2.02 mU/ml. The IC50 with HepG2 cells [6] came out at 500 µM.
